{
  "source": "patent US20220290122A1",
  "about": "(Whitehead Institute for Biomedical Research, priority 2019, published 2022)",
  "system": "MCART1-null Jurkat cells",
  "test": "Cell proliferation assay with metabolite supplementation (metabolite rescue)",
  "format": "cell-based, human",
  "conditions": "RPMI media; 1 mM pyruvate and 100 μg/ml uridine, 1 mM formate or 0.1 mM/16 μM hypoxanthine/thymidine added at the beginning of the culture period; FIG. 5M",
  "description": "Unless otherwise indicated, Jurkat and K562 cells were cultured in RPMI (Life Technologies) supplemented with 10% Inactivated Fetal Calf Serum (IFS, Sigma and Gemini), 2 mM glutamine, and penicillin/streptomycin. HeLa, HEK-293T, and Ben cells were cultured in DMEM (Life Technologies) supplemented with 10% IFS and penicillin/streptomycin. […] To compare proliferation of cells in glucose to proliferation in galactose, RPMI without glucose (Life Technologies) was supplemented with dialyzed IFS and either 10 mM glucose or galactose. All cell lines were maintained at 37° C. and 5% CO2.\n10,000 cells per well were seeded into 96-well plates in triplicate. Cell titer glo reagent (Promega) was added to one plate 1 hour after seeding and luminescence was measured, while a second plate was read-out 4 days after seeding. Number of doublings in 4 days was determined by calculating the loge fold-change in signal between day 0 and 4. For cell counting experiments, 100,000 cells/ml were seeded in a 6-well plate in triplicates and counted immediately after seeding and from then on every 24 hours for 5 sequential days.",
  "data": [
    {"smiles": "O=CO", "note": "[formate]", "values": [
      {"measurement": "rescue of the proliferation defect of MCART1-null cells by addition of metabolites to the media", "value": "not rescued"}
    ]}
  ]
}
